In patent US8962603B2, “Method for post coital contraception in overweight or obese female subjects using ulipristal acetate” (Laboratoire HRA-Pharma, priority 2010, dated 2015):

Experiments:
[1] = test system: women requesting emergency contraception after unprotected intercourse; experiment: Meta-analysis of Phase II and Phase III emergency contraception studies: pregnancy rate by WHO BMI class; assay type: in vivo; conditions: for Odds Ratio [95% CI]: ulipristal acetate vs levonorgestrel
Method: The effect of BMI in pooled phase III studies was assessed by comparing pregnancy rates among sub-groups of the study populations according to WHO weight classes. Pregnancy rates increased starting from BMI>25, and for women with a BMI>30, the 95% CI of the observed pregnancy rate overlapped with the expected pregnancy rate. […] This Phase II, prospective, multicenter, randomized, double-blind study was performed to compare the efficacy of a single 50 mg dose of ulipristal acetate (unmicronized in gelatine capsule) with two 0.75 mg doses of levonorgestrel used as an emergency postcoital contraceptive within 72 hours of unprotected intercourse. The study was carried out in seven sites in seven different states in the United States. Women (aged ≧18 years old) not using hormonal contraception and who requested emergency contraception within 72 hours (3 days) after unprotected coitus defined by lack of contraceptive use, condom breakage or other barrier contraceptive method failure were included. Subjects were required to have a history of regular menstrual cycles (mean length of 24-42 days with intra-individual variation of ±5 days). At least one normal menstrual cycle (two menses) was required after delivery, abortion, or discontinuation of hormonal contraception. Subjects were excluded from the study if they were pregnant at screening or enrollment (assessed by a high-sensitivity urine pregnancy test), pregnant or breastfeeding within the 2 months before screening, using an intra-uterine device (IUD) or female or male sterilization as a contraceptive method, uncertain about the date of the last menstrual period (±3 days), had been nauseated or vomited in the 2 weeks before screening, had used oral glucocorticoid replacement therapy in the year before the screening, or were currently enrolled in any other investigational trial. Each woman returned for a follow-up visit 5 to 7 days after the expected onset of their next menstrual period and a high-sensitivity urine pregnancy test was performed. The primary objective was to compare the efficacy, as determined by pregnancy prevention, of 50 mg ulipristal acetate and levonorgestrel used as an emergency postcoital contraceptive within 72 hours of unprotected intercourse. […] This was a prospective, single-blind (subject and sponsor blind, investigator not blind), randomized, multicenter, 2-arm parallel comparative study designed to evaluate the efficacy, safety and tolerability of a single dose of ulipristal acetate (30 mg) compared to levonorgestrel (1.5 mg) administered for EC within 120 hours after unprotected intercourse. It was performed in 10 centers in Europe and 25 centers in the US. Women (aged ≧16 years), with regular menstrual cycles (between 24 and 35 days and intra-individual variations less than or equal to 5 days), who presented for EC within 120 hours after unprotected intercourse at a participating study site and who met the inclusion/exclusion criteria were enrolled into the study after they signed informed consent form. Subjects were excluded from the study in case of ongoing pregnancy or breast-feeding or current use of hormonal contraception or IUD. The study medication (ulipristal acetate 30 mg or levonorgestrel 1.5 mg) was administered according to a random allocation procedure generated electronically. Treatment was administered orally immediately after all eligibility criteria (including negative urine pregnancy test) had been verified. […] The primary objective of the study was to provide evidence that the pregnancy rate observed after taking ulipristal acetate (30 mg) within 72 hours of unprotected intercourse is lower than the expected pregnancy rate in the absence of EC. […]

[2] = in vivo; cited from earlier work
[3] = used within 72 hours of UPI; cited from earlier work
[4] = BMI class (WHO) Normal weight (18.5 to 24.99), N=2087
[5] = BMI class (WHO) Obese grade I (30 to 34.99), N=285
[6] = BMI class (WHO) Obese grade II (35 to 39.99), N=107
[7] = BMI class (WHO) Obese grade III (≧40), N=77
[8] = BMI class (WHO) Overweight (25 to 29.99), N=744
[9] = BMI class (WHO) Underweight (<18.5), N=145
[10] = grouped BMI class Obese II and more, N=184
[11] = grouped BMI class Overweight & Obese I, N=1029
[12] = grouped BMI class Underweight & Normal, N=2232

Row | SMILES | Pregnancy rate [1, 4] | Pregnancy rate [1, 5] | Pregnancy rate [1, 6] | Pregnancy rate [1, 7] | Pregnancy rate [1, 8] | Pregnancy rate [1, 9] | Pregnancy rate [1, 10] | Pregnancy rate [1, 11] | Pregnancy rate [1, 12] | effect on ovulation [2] | efficacy for preventing pregnancy versus levonorgestrel [3] | efficacy by BMI group ([1]; obese grade II (BMI 35 and above) subjects) | Odds Ratio [95% CI] ([1]; Obese II and more, CI [0.23, 4.44], NS) | Odds Ratio [95% CI] ([1]; Overweight & Obese I, CI [0.11, 0.74], p = 0.0073) | Odds Ratio [95% CI] ([1]; Underweight & Normal, CI [0.37, 1.73], NS) | efficacy by BMI group ([1]; underweight and normal (BMI below 25) and overweight and obese grade I (BMI 25-34.99) subjects) | risk of pregnancy divided by (ulipristal acetate versus levonorgestrel) ([1]; women overweight or with grade I obesity (BMI 25-34.99), p=0.0073) | efficacy versus levonorgestrel ([1]; women with a BMI>25)
1 | C#C[C@]1(O)CC[C@H]2[C@@H]3CCC4=CC(=O)CC[C@@H]4[C@H]3CC[C@@]21CC [Levonorgestrel, levonorgestrel] | 1.33% | 6.71% | 3.85% | 4.88% | 2.45% | 1.43% | 4.30% | 3.68% | 1.34% | – | – | – | – | – | – | – | – | –
2 | CC(=O)O[C@]1(C(C)=O)CC[C@H]2[C@@H]3CCC4=CC(=O)CCC4=C3[C@@H](c3ccc(N(C)C)cc3)C[C@@]21C [Ulipristal acetate, 17α-acetoxy-11β-[4-N,N-dimethylamino-phenyl)-19-norpregna-4,9-diene-3,20-dione] | 1.16% | 1.47% | 3.64% | 5.56% | 1.06% | 0% | 4.40% | 1.17% | 1.08% | inhibits or delays ovulation in a dose-dependent fashion | as efficacious as levonorgestrel | decreased | 1.02 | 0.31 | 0.81 | remained constant | 3 | significantly more effective than levonorgestrel
